Test results from ChEMBL document CHEMBL5385861, “Development of novel hydrazidoarylaminopyrimidine-based BTK/FLT3 dual inhibitors with potent in vivo anti-hematological malignancies effects” (Eur J Med Chem, 2023).
Activity calls are given as the source filed them. The rule behind the calls is not given here.

Key:
[1] = Toxicity in NOD/SCID mouse xenografted with human JeKo-1 cells assessed as eating abnormalities at 25 to 50 mg/kg, ip measured for 16 days; format: organism-based; conditions: in vivo, 384 h, dose 25-50 mg/kg, time 16 day
JeKo-1 [2] = assay: Induction of apoptosis in human JeKo-1 cells assessed as downregulation of Bcl-2 protein expression at 30 to 750 nM incubated for 72 hrs by Western blot analysis; format: functional, cell-based; conditions: dose 30-750 nM
[3] = Acute toxicity in ip dosed ICR mouse assessed as change in routine blood analysis at 200 mg/kg, ip measured for 2 weeks; format: organism-based; conditions: in vivo, 336 h
MV4-11 [4] = assay: Antitumor activity against human MV4-11 cells xenografted in NOD/SCID mouse assessed as tumor growth inhibition at 10 mg/kg ip administered once daily for 21 days; format: functional; conditions: MV4-11, 504 h, time 21 day, read-out: TGI
K562 = assay: Potency index, ratio of ibrutinib IC50 to test compound IC50 for antiproliferative activity against human K562 cells; format: functional
[5] = molecular target: CDK6/cyclin D3 (Homo sapiens) (UniProt P30281+Q00534); assay: Inhibition of CDK6/cyclinD3 (unknown origin) at 0.2 uM incubated for 40 mins by radiometric kinase assay relative to control; format: protein-complex assay
JeKo-1 [6] = assay: Induction of apoptosis in human JeKo-1 cells assessed as necrotic cells at 150 nM incubated for 72 hrs by Annexin VFITC/PI staining based flow cytometry analysis (reference value: 0.67%); format: functional
[7] = molecular target: Tyrosine-protein kinase HCK (Homo sapiens) (UniProt P08631); assay: Inhibition of HCK (unknown origin) at 0.2 uM incubated for 40 mins by radiometric kinase assay relative to control
MV4-11 [8] = assay: cells; conditions: Homo sapiens, MV4-11, 72 h
JeKo-1 [9] = assay: Induction of apoptosis in human JeKo-1 cells assessed as viable cells at 150 nM incubated for 72 hrs by Annexin VFITC/PI staining based flow cytometry analysis (reference value: 94.81%); format: functional; conditions: read-out: Activity
PBMC = assay: Cytotoxicity against human PBMC cells assessed as reduction in cell viability; format: toxicity, cell-based
JeKo-1 [10] = assay: Induction of apoptosis in human JeKo-1 cells assessed as early apoptotic cells at 30 nM incubated for 72 hrs by Annexin VFITC/PI staining based flow cytometry analysis (reference value: 3.10%); format: functional
[11] = molecular target: PI3-kinase p110-alpha/p85-alpha (Homo sapiens) (UniProt P27986+P42336); assay: Inhibition of PI3 Kinase p110a/p85a (unknown origin) at 0.2 uM incubated for 40 mins by radiometric kinase assay relative to control; format: protein-complex assay
JeKo-1 [12] = assay: Antitumor activity against human JeKo-1 cells xenografted NOD/SCID mouse assessed as reduction in tumor weight at 50 mg/kg, ip measured for 16 days; format: functional; conditions: time 16 day
[13] = molecular target: Tyrosine-protein kinase SYK (Homo sapiens) (UniProt P43405); assay: Inhibition of SYK (unknown origin) at 0.2 uM incubated for 40 mins by radiometric kinase assay relative to control
P-glycoprotein = assay: in vitro; conditions: human, Caco-2
Description: Efflux ratio of apparent permeability across basolateral to apical side over apical to basolateral side in human Caco-2 cells incubated for 120 mins in presence of P-glycoprotein by LC-MS/MS analysis

[14] = molecular target: Tyrosine-protein kinase receptor TYRO3 (Homo sapiens) (UniProt Q06418); assay: Inhibition of RSE (unknown origin) at 0.2 uM incubated for 40 mins by radiometric kinase assay relative to control
MV4-11 [15] = assay: Antitumor activity against human MV4-11 cells xenografted in ip dosed NOD/SCID mouse assessed as suppression of tumor growth administered once daily for 21 days; format: functional, organism-based; conditions: dose 10-20 mg/kg, time 21.0 day
JeKo-1 [16] = assay: Induction of apoptosis in human JeKo-1 cells assessed as upregulation of Bax protein expression at 30 to 750 nM incubated for 72 hrs by Western blot analysis; format: functional, cell-based; conditions: dose 30-750 nM
JeKo-1 [17] = assay: Induction of apoptosis in human JeKo-1 cells assessed as viable cells at 30 nM incubated for 72 hrs by Annexin VFITC/PI staining based flow cytometry analysis (reference value: 94.81%); format: functional; conditions: read-out: Activity
[18] = molecular target: Inhibitor of nuclear factor kappa-B kinase subunit alpha (Homo sapiens) (UniProt O15111); assay: Inhibition of IKKalpha (unknown origin) at 0.2 uM incubated for 40 mins by radiometric kinase assay relative to control
JeKo-1 [19] = assay: Potency index, ratio of sorafenib IC50 to test compound IC50 for antiproliferative activity against human JeKo-1 cells; format: functional
[20] = Toxicity in NOD/SCID mouse xenografted with human JeKo-1 cells assessed as abnormal activity at 25 to 50 mg/kg, ip measured for 16 days; format: organism-based; conditions: in vivo, 384 h, dose 25-50 mg/kg, time 16 day
[21] = molecular target: Serine/threonine-protein kinase PLK2 (Homo sapiens) (UniProt Q9NYY3); assay: Inhibition of SNK (unknown origin) at 0.2 uM incubated for 40 mins by radiometric kinase assay relative to control
JeKo-1 [22] = assay: Induction of apoptosis in human JeKo-1 cells assessed as viable cells at 750 nM incubated for 72 hrs by Annexin VFITC/PI staining based flow cytometry analysis (reference value: 94.81%); format: functional; conditions: Homo sapiens, JeKo-1, read-out: Activity
in vitro = conditions: human, Caco-2
Description: Apparent permeability across apical to basolateral side in human Caco-2 cells incubated for 120 mins by LC-MS/MS analysis

[23] = molecular target: Serine/threonine-protein kinase mTOR (Homo sapiens) (UniProt P42345); assay: Inhibition of mTOR (unknown origin) at 0.2 uM incubated for 40 mins by radiometric kinase assay relative to control
[24] = molecular target: Serine-protein kinase ATM (Homo sapiens) (UniProt Q13315); assay: Inhibition of ATM (unknown origin) at 0.2 uM incubated for 40 mins by radiometric kinase assay relative to control
[25] = Metabolic stability in human liver microsome assessed as half life preincubated with compound for 5 mins followed by NADPH addition and measured upto 60 mins by LC-MS/MS analysis; format: ADME; conditions: liver microsomes, time < 65 min
JeKo-1 [26] = assay: Potency index, ratio of ibrutinib IC50 to test compound IC50 for antiproliferative activity against human JeKo-1 cells; format: functional
[27] = Acute toxicity in ip dosed ICR mouse assessed as lethal dose measured for 2 weeks; format: organism-based; conditions: in vivo
[28] = molecular target: Receptor-type tyrosine-protein kinase FLT3 (Homo sapiens, UniProt P36888); assay: Inhibition of FLT3 (unknown origin) incubated for 40 mins by radiometric kinase assay
MV4-11 [29] = assay: Antitumor activity against human MV4-11 cells xenografted in NOD/SCID mouse assessed as tumor growth inhibition at 20 mg/kg ip administered once daily for 21 days; format: functional; conditions: MV4-11, 504 h, time 21 day, read-out: TGI
[30] = molecular target: Mitogen-activated protein kinase kinase kinase 7 (Homo sapiens) (UniProt O43318); assay: Inhibition of TAK1 (unknown origin) at 0.2 uM incubated for 40 mins by radiometric kinase assay relative to control
MV4-11 [31] = assay: Potency index, ratio of ibrutinib IC50 to test compound IC50 for antiproliferative activity against human MV4-11 cells; format: functional
[32] = molecular target: Signal transducer and activator of transcription 5A (Homo sapiens) (UniProt P42229); assay: Inhibition of STAT5 phosphorylation in human JeKo-1 cells incubated for 72 hrs by Western blot analysis; format: cell-based; conditions: dose 30-750 nM
[33] = Toxicity in NOD/SCID mouse xenografted with human JeKo-1 cells assessed as effect on body weight at 25 to 50 mg/kg, ip measured for 16 days; format: organism-based; conditions: in vivo, 384 h, dose 25-50 mg/kg, time 16 day

Chain of Inhibitor of nuclear factor kappa-B kinase subunit alpha (Homo sapiens) (O15111 whole entry): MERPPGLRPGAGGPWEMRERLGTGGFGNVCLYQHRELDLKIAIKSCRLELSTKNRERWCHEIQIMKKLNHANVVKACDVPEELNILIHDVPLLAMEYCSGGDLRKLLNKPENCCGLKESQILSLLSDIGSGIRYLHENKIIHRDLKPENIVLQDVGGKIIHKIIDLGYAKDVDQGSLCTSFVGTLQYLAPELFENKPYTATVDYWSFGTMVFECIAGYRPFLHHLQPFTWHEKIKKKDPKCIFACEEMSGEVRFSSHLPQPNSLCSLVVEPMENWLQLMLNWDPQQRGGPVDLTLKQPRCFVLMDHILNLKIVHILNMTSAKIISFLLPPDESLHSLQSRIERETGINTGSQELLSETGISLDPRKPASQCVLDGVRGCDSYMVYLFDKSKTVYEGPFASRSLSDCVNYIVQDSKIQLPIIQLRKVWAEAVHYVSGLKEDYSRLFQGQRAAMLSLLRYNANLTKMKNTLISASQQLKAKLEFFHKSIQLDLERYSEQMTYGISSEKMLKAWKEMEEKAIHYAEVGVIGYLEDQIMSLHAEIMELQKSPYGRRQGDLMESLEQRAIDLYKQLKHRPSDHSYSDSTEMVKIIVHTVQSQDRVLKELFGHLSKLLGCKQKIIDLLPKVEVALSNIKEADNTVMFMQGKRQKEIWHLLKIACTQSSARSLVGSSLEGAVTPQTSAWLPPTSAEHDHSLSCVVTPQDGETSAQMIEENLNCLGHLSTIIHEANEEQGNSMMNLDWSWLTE
Chain of Serine/threonine-protein kinase PLK2 (Homo sapiens) (Q9NYY3 whole entry, looked up): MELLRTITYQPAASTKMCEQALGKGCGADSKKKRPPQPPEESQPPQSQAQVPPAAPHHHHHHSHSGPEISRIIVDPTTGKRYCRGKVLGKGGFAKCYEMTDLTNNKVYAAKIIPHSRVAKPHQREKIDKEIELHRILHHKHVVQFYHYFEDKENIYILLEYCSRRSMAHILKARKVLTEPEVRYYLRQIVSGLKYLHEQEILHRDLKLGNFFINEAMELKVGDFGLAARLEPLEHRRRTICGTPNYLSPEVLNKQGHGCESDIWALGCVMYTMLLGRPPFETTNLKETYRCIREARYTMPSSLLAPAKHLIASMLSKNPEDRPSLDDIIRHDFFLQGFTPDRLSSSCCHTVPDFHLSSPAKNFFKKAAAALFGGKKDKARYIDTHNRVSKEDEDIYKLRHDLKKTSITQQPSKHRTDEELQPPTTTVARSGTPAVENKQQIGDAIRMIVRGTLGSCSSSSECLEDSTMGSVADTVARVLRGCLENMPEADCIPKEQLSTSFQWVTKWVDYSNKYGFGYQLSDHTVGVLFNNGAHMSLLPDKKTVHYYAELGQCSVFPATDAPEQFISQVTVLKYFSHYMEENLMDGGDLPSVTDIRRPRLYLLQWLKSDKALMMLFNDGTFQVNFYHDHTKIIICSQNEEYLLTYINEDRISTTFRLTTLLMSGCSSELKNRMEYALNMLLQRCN
Chain of Tyrosine-protein kinase HCK (Homo sapiens) (P08631 2-526 limits assumed): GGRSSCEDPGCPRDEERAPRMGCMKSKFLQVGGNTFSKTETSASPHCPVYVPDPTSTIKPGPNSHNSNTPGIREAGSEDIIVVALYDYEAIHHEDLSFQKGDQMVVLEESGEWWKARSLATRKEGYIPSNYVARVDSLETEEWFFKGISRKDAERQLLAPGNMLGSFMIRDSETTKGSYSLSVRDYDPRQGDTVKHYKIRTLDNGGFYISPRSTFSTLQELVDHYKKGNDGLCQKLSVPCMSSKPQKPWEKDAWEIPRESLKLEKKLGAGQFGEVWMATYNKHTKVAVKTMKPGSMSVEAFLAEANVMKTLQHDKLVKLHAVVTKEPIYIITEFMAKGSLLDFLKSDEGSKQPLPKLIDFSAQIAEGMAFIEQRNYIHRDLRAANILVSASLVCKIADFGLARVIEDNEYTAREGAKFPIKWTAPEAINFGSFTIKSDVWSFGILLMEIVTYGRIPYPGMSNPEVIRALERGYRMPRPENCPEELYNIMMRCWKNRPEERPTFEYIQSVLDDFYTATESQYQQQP
Chain of Receptor-type tyrosine-protein kinase FLT3 (P36888 whole entry): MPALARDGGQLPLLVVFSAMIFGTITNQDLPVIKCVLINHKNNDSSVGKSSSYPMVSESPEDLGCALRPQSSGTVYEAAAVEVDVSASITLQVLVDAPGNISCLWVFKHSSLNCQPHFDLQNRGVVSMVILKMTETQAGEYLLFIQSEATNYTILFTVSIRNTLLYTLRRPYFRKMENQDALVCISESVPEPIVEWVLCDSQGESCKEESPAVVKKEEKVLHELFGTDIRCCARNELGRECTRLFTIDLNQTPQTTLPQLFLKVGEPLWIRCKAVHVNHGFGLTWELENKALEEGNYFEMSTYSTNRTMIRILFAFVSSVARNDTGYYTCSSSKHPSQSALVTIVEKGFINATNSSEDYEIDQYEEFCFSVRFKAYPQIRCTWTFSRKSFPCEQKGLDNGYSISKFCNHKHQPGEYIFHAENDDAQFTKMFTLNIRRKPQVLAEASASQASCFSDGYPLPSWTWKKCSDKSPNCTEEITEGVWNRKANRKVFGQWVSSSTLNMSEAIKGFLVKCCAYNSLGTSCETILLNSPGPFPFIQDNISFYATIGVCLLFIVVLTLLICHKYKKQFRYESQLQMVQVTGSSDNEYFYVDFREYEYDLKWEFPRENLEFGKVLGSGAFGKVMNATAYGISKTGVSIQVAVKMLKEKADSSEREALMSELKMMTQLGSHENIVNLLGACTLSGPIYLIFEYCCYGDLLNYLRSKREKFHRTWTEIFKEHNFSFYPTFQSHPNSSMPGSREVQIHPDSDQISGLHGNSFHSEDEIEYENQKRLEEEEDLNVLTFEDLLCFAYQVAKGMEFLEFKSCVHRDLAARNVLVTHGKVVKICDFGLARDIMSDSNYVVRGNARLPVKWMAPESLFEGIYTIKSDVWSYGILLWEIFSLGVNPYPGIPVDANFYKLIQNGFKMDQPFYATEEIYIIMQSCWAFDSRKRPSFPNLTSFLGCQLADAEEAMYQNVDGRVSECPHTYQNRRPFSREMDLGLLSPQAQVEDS
Chain of Signal transducer and activator of transcription 5A (Homo sapiens) (P42229 whole entry): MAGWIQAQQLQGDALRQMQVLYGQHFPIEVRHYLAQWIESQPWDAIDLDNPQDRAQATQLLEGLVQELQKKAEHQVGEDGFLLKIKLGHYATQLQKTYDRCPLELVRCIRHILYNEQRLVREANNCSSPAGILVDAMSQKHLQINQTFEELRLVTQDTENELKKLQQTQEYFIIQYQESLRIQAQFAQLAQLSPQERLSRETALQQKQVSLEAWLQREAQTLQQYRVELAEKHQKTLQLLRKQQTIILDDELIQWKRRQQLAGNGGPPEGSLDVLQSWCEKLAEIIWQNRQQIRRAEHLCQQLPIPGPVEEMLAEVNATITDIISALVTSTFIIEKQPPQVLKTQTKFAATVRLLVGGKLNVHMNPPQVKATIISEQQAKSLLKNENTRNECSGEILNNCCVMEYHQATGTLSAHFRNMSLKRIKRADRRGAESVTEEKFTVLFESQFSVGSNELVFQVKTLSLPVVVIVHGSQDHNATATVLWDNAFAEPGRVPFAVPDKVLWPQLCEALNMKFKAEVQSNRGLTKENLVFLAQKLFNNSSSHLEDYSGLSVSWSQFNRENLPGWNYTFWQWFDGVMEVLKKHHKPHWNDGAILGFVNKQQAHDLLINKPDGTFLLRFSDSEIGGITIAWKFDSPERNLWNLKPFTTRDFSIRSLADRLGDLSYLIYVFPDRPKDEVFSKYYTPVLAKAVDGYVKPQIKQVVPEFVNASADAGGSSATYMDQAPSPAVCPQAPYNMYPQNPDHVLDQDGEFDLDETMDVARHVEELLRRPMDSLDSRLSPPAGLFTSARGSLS
Chain of Tyrosine-protein kinase receptor TYRO3 (Homo sapiens) (Q06418 whole entry): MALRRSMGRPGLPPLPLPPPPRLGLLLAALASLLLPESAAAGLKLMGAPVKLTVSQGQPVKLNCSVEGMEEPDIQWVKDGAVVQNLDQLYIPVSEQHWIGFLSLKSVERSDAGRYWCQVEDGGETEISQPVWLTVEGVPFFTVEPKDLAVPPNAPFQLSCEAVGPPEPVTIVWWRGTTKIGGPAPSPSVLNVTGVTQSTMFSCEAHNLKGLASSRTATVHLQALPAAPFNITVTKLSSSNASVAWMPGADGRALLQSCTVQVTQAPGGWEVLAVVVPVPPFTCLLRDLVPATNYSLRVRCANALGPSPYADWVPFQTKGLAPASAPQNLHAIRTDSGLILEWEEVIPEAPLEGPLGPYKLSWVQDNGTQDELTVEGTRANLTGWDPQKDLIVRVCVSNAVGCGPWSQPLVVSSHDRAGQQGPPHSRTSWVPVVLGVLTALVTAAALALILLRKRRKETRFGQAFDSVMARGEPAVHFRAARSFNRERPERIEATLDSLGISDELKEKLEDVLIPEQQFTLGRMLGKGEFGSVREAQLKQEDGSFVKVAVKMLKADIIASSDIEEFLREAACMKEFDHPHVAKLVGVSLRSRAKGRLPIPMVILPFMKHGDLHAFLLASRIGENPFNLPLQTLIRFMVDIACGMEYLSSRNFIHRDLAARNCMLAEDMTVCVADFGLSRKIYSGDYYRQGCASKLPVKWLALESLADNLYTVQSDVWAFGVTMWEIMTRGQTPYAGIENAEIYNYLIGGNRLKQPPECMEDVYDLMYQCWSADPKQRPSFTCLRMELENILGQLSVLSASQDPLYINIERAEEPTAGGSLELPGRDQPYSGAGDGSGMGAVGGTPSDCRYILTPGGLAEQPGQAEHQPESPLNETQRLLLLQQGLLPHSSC

With `CN1CCN(c2ccc(Nc3ncc(F)c(Nc4ccccc4C(=O)NN)n3)cc2)CC1` the Activity [1] was “Non-Toxic”, the Activity (JeKo-1 [2]) was “Active” and the Activity [3] was “Non-Toxic”. For the same compound, the inhibition in vivo at 10 mg/kg (MV4-11 [4]) was 74.2%, the “Ratio IC50” value (K562) was 6 and the inhibition [5] was 23%. It also gave an Activity (JeKo-1 [6]) of 0.37%, an inhibition [7] of 27% and an IC50 (MV4-11 [8]) of 3 nM. The viability at 0.15 µM (JeKo-1 [9]) was 72.4%, the Activity (PBMC) was “Non-Toxic” and the Activity (JeKo-1 [10]) was 12.08%. For the same compound, the inhibition [11] was 13%, the Activity (JeKo-1 [12]) was 0.18 g and the inhibition [13] was 4%. The efflux ratio at 2 h (P-glycoprotein) was 2.64, the inhibition [14] was 24% and the Activity (MV4-11 [15]) was “Dose-Dependent Effect”. For the same compound, the Activity (JeKo-1 [16]) was “Active”, the viability at 0.03 µM (JeKo-1 [17]) was 87.5% and the inhibition [18] was 17%. For the same compound, the “Ratio IC50” value (JeKo-1 [19]) was 1.3, the Activity [20] was “Non-Toxic” and the inhibition [21] was 43%. The viability at 0.75 µM (JeKo-1 [22]) was 61.5%, the Papp A→B at 2 h (in vitro) was 5.11 ×10⁻⁶ cm/s and the inhibition [23] was -7%. For the same compound, the inhibition [24] was -6%, the half-life [25] was 41.5 min and the “Ratio IC50” value (JeKo-1 [26]) was 6. The LD50 at 336 h [27] was 343 mg/kg, the IC50 [28] was 12 nM and the inhibition in vivo at 20 mg/kg (MV4-11 [29]) was 100%. For the same compound, the inhibition [30] was 26%, the “Ratio IC50” value (MV4-11 [31]) was 6 and the inhibition [32] was “Dose-Dependent Effect”. For the same compound, the Activity [33] was “Non-Toxic”.
